Measured values as given in ChEMBL document CHEMBL1125011, “Potential antimitotic agents. Synthesis of some ethyl benzopyrazin-7-ylcarbamates, ethyl pyrido[3,4-b]pyrazin-7-ylcarbamates, and ethyl pyrido[3,4-e]-as-triazin-7-ylcarbamates” (J Med Chem, 1990).

Assays:
L1210 [1] = experiment: Concentration required to inhibit 50% proliferation of cultured lymphoid leukemia L1210 cells was measured; format: functional, cell-based; settings: Mus musculus
L1210 [2] = experiment: (§1) Concentration that causes a mitotic index of 0.5 for cultured lymphoid leukemia L1210 cells was determined; format: functional, Mus musculus
[3] = as §1; format: functional, Mus musculus

IC50 (L1210 [1]) [µM] | SMILES | MI0.5 (L1210 [2]) [µM] | MI0.5 [3] [µM]
> 10 | CCOC(=O)Nc1cc2nnc(-c3ccccc3)nc2c(N)n1 | – | –
0.3 | CCOC(=O)Nc1cc2ncc(-c3ccccc3)nc2c(N)n1 | – | –
> 100 | COC(=O)Nc1cc(N)c2nc(-c3ccccc3)cnc2c1 | – | –
> 100 | CCOC(=O)c1cc(N)c2c(c1)NCC(c1ccccc1)=N2 | >10 | –
– | CCOC(=O)Nc1cc2c(c(N)n1)N=C(c1ccccc1)CN2 | – | 0.0028
0.042 | CCOC(=O)Nc1cc2nc(O)c(-c3ccccc3)nc2c(N)n1 | 0.022 | –
24 | COC(=O)Nc1cc(N)c2c(c1)NCC(c1ccccc1)=N2 | – | –
> 30 | CCOC(=O)Nc1cc2nc(N)c(-c3ccccc3)nc2c(N)n1 | – | –
> 100 | CCOC(=O)c1cc(N)c2nc(-c3ccccc3)cnc2c1 | >10 | –
> 10 | CCOC(=O)Nc1cc2c(c(N)n1)NC(c1ccccc1)=NN2 | – | –
0.75 | COC(=O)Nc1cc(N)c2nc(-c3ccccc3)c(O)nc2c1 | – | 1.9
